Assay results taken from PubChem BioAssay AID250 (DTP/NCI, 2004).
Several values for one entry are separate records, joined by “and”; a condition that tells them apart may be missing. Equal values may be shown once. Toxic doses and inconclusive results are not listed.

Test system: BDF1 mice, L1210 leukemia sc, survival T/C
Assay: NCI In Vivo Anticancer Drug Screen. Data for tumor model L1210 Leukemia (subcutaneous) in B6D2F1 (BDF1) mice
Conditions: higher = longer survival
Procedure: The antitumor activity of compounds was measured in mice bearing transplantable tumors. Survival or tumor size were measured and the results are expressed as the measurement made in the treated group (T) divided by the measurement made in the vehicle treated control group (C). The tumor model used in this assay is L1210 Leukemia (subcutaneous) in B6D2F1 (BDF1) mice

[1] = endpoint: median survival time, dose: 108.0 mg/kg/injection, schedule: Q01DX Z (sc), vehicle: methylcellulose (MC)
[2] = endpoint: median survival time, dose: 180.0 mg/kg/injection, schedule: Q01DX Z (sc), vehicle: methylcellulose (MC)
[3] = endpoint: median survival time, dose: 300.0 mg/kg/injection, schedule: Q01DX Z (sc), vehicle: methylcellulose (MC)
[4] = endpoint: median survival time, dose: 500.0 mg/kg/injection, schedule: Q01DX Z (sc), vehicle: methylcellulose (MC)
[5] = endpoint: median survival time, dose: 833.0 mg/kg/injection, schedule: Q01DX Z (sc), vehicle: methylcellulose (MC)
[6] = endpoint: median survival time, dose: 65.0 mg/kg/injection, schedule: Q01DX Z (sc), vehicle: saline
[7] = endpoint: median survival time, dose: 14.0 mg/kg/injection, schedule: Q01DX Z (sc), vehicle: methylcellulose (MC)
[8] = endpoint: median survival time, dose: 65.0 mg/kg/injection, schedule: Q01DX Z (sc), vehicle: methylcellulose (MC)
[9] = endpoint: median survival time, dose: 38.9 mg/kg/injection, schedule: Q01DX Z (sc), vehicle: methylcellulose (MC)
[10] = endpoint: median survival time, dose: 8.4 mg/kg/injection, schedule: Q01DX Z (sc), vehicle: water
[11] = endpoint: median survival time, dose: 14.0 mg/kg/injection, schedule: Q01DX Z (sc), vehicle: water
[12] = endpoint: median survival time, dose: 23.0 mg/kg/injection, schedule: Q01DX Z (sc), vehicle: water

Structure (SMILES): C[n+]1c2ccccc2c(Nc2ccc(NS(=O)(=O)CCCCN=C(N)N)cc2)c2ccc(N)cc21
- T/C (endpoint: median survival time, dose: 1.5 mg/kg/injection, schedule: Q01DX009 (ip), vehicle: water): 110 % of control
- T/C (endpoint: median survival time, dose: 3.0 mg/kg/injection, schedule: Q01DX009 (ip), vehicle: water): 120 % of control
- T/C (endpoint: median survival time, dose: 6.0 mg/kg/injection, schedule: Q01DX009 (ip), vehicle: water): 151 % of control
- T/C (endpoint: median survival time, dose: 12.0 mg/kg/injection, schedule: Q01DX009 (ip), vehicle: water): 173 % of control

Structure (SMILES): CCCCCCCSc1ncnc2nc[nH]c12
- T/C [1]: 111 % of control
- T/C [2]: 111 % of control
- T/C [3]: 100 % of control
- T/C [4]: 100 % of control
- T/C [5]: 100 % of control
- T/C (endpoint: median survival time, dose: 1388.0 mg/kg/injection, schedule: Q01DX Z (sc), vehicle: methylcellulose (MC)): 100 % of control

Structure (SMILES): O=P(N1CCOCC1)(N1CC1)N1CC1
- T/C (endpoint: median survival time, dose: 5.0 mg/kg/injection, schedule: Q01DX Z (sc), vehicle: saline): 96 % of control and 110 % of control
- T/C (endpoint: median survival time, dose: 8.4 mg/kg/injection, schedule: Q01DX Z (sc), vehicle: saline): 100 % of control and 110 % of control
- T/C (endpoint: median survival time, dose: 23.0 mg/kg/injection, schedule: Q01DX Z (sc), vehicle: saline): 160 % of control and 164 % of control
- T/C [6]: 112 % of control

Structure (SMILES): ClCCN(CCCl)c1ccc(CCNc2ccnc3cc(Cl)ccc23)cc1
- T/C [7]: 100 % of control
- T/C [8]: 100 % of control

Structure (SMILES): CCCSc1ncnc2nc[nH]c12
- T/C [9]: 100 % of control
- T/C (endpoint: median survival time, dose: 64.8 mg/kg/injection, schedule: Q01DX Z (sc), vehicle: methylcellulose (MC)): 100 % of control
- T/C [1]: 100 % of control
- T/C [2]: 120 % of control
- T/C [3]: 110 % of control

Structure (SMILES): CCCCCn1c(C)cc(/C=C\c2ccc3cc(C)ccc3[n+]2C)c1C
- T/C (endpoint: median survival time, dose: 0.23 mg/kg/injection, schedule: Q01DX Z (sc), vehicle: methylcellulose (MC)): 100 % of control
- T/C (endpoint: median survival time, dose: 0.39 mg/kg/injection, schedule: Q01DX Z (sc), vehicle: methylcellulose (MC)): 100 % of control
- T/C (endpoint: median survival time, dose: 0.65 mg/kg/injection, schedule: Q01DX Z (sc), vehicle: methylcellulose (MC)): 100 % of control
- T/C (endpoint: median survival time, dose: 1.08 mg/kg/injection, schedule: Q01DX Z (sc), vehicle: methylcellulose (MC)): 100 % of control
- T/C (endpoint: median survival time, dose: 1.8 mg/kg/injection, schedule: Q01DX Z (sc), vehicle: methylcellulose (MC)): 100 % of control

Structure (SMILES): O=C(Nc1ccc(C2=NCCCN2)cc1)c1ccc(C(=O)Nc2ccc(C3=NCCCN3)cc2)nc1
- T/C (endpoint: median survival time, dose: 3.0 mg/kg/injection, schedule: Q01DX Z (sc), vehicle: water): 100 % of control
- T/C (endpoint: median survival time, dose: 5.0 mg/kg/injection, schedule: Q01DX Z (sc), vehicle: water): 100 % of control
- T/C [10]: 100 % of control
- T/C [11]: 88 % of control
- T/C [12]: 100 % of control

Structure (SMILES): CS(=O)(=O)OCC(O)C(O)COS(C)(=O)=O (centres undefined)
- T/C (endpoint: median survival time, dose: 39.0 mg/kg/injection, schedule: Q01DX Z (sc), vehicle: saline): 95 % of control
- T/C [6]: 91 % of control
- T/C (endpoint: median survival time, dose: 108.0 mg/kg/injection, schedule: Q01DX Z (sc), vehicle: saline): 91 % of control
- T/C (endpoint: median survival time, dose: 180.0 mg/kg/injection, schedule: Q01DX Z (sc), vehicle: saline): 91 % of control
- T/C (endpoint: median survival time, dose: 300.0 mg/kg/injection, schedule: Q01DX Z (sc), vehicle: saline): 100 % of control

Structure (SMILES): OC(C1CO1)C(O)C1CO1 (centres undefined)
- T/C (endpoint: median survival time, dose: 0.12 mg/kg/injection, schedule: Q01DX009 (ip), vehicle: saline): 98 % of control
- T/C (endpoint: median survival time, dose: 0.25 mg/kg/injection, schedule: Q01DX009 (ip), vehicle: saline): 107 % of control
- T/C (endpoint: median survival time, dose: 0.5 mg/kg/injection, schedule: Q01DX009 (ip), vehicle: saline): 107 % of control
- T/C (endpoint: median survival time, dose: 1.0 mg/kg/injection, schedule: Q01DX009 (ip), vehicle: saline): 122 % of control
- T/C (endpoint: median survival time, dose: 1.0 mg/kg/injection, schedule: Q01DX009 (ip), vehicle: water): 116 % of control
- T/C (endpoint: median survival time, dose: 1.0 mg/kg/injection, schedule: Q01DX009 (sc), vehicle: water): 122 % of control
- T/C (endpoint: median survival time, dose: 2.0 mg/kg/injection, schedule: Q01DX009 (ip), vehicle: saline): 150 % of control
- T/C (endpoint: median survival time, dose: 2.0 mg/kg/injection, schedule: Q01DX009 (sc), vehicle: water): 150 % of control
- T/C (endpoint: median survival time, dose: 2.0 mg/kg/injection, schedule: Q04DX003 (ip), vehicle: water): 111 % of control
- T/C (endpoint: median survival time, dose: 4.0 mg/kg/injection, schedule: Q01DX009 (ip), vehicle: saline): 118 % of control
- T/C (endpoint: median survival time, dose: 4.0 mg/kg/injection, schedule: Q04DX003 (ip), vehicle: water): 155 % of control
- T/C (endpoint: median survival time, dose: 4.0 mg/kg/injection, schedule: Q04DX003 (sc), vehicle: water): 161 % of control
- T/C (endpoint: median survival time, dose: 8.0 mg/kg/injection, schedule: Q04DX003 (ip), vehicle: water): 88 % of control
- T/C (endpoint: median survival time, dose: 8.0 mg/kg/injection, schedule: Q04DX003 (sc), vehicle: water): 116 % of control

Structure (SMILES): CC1CN1CCS(=O)(=O)CCN1CC1C (centres undefined)
- T/C (endpoint: median survival time, dose: 5.18 mg/kg/injection, schedule: Q01DX Z (sc), vehicle: saline): 121 % of control
- T/C (endpoint: median survival time, dose: 8.64 mg/kg/injection, schedule: Q01DX Z (sc), vehicle: saline): 168 % of control
- T/C (endpoint: median survival time, dose: 14.4 mg/kg/injection, schedule: Q01DX Z (sc), vehicle: saline): 163 % of control
- T/C (endpoint: median survival time, dose: 24.0 mg/kg/injection, schedule: Q01DX Z (sc), vehicle: saline): 115 % of control
- T/C (endpoint: median survival time, dose: 40.0 mg/kg/injection, schedule: Q01DX Z (sc), vehicle: saline): 105 % of control

Structure (SMILES): CCCCC(C)(N)C(=O)O (centres undefined)
- T/C [11]: 95 % of control
- T/C [12]: 100 % of control
- T/C (endpoint: median survival time, dose: 39.0 mg/kg/injection, schedule: Q01DX Z (sc), vehicle: water): 100 % of control
- T/C (endpoint: median survival time, dose: 65.0 mg/kg/injection, schedule: Q01DX Z (sc), vehicle: water): 100 % of control
- T/C (endpoint: median survival time, dose: 108.0 mg/kg/injection, schedule: Q01DX Z (sc), vehicle: water): 100 % of control
- T/C (endpoint: median survival time, dose: 180.0 mg/kg/injection, schedule: Q01DX Z (sc), vehicle: water): 100 % of control
- T/C (endpoint: median survival time, dose: 300.0 mg/kg/injection, schedule: Q01DX Z (sc), vehicle: water): 100 % of control

Structure (SMILES): CCCCSc1ncnc2nc[nH]c12
- T/C [7]: 90 % of control
- T/C (endpoint: median survival time, dose: 23.3 mg/kg/injection, schedule: Q01DX Z (sc), vehicle: methylcellulose (MC)): 100 % of control
- T/C [9]: 104 % of control
- T/C [4]: 113 % of control
- T/C [5]: 100 % of control

Structure (SMILES): C[C@]12CCC(=O)C=C1CC[C@@H]1[C@@H]2C(=O)C[C@@]2(C)[C@H]1CC[C@]2(O)C(=O)CO
- T/C (endpoint: median survival time, dose: 39.0 mg/kg/injection, schedule: Q01DX Z (sc), vehicle: methylcellulose (MC)): 100 % of control
- T/C [8]: 104 % of control
- T/C [1]: 104 % of control
- T/C [2]: 100 % of control
- T/C [3]: 100 % of control

Structure (SMILES): CCOC(=O)c1ccc(N)nc1
- T/C (endpoint: median survival time, dose: 1.81 mg/kg/injection, schedule: Q01DX Z (sc), vehicle: water): 100 % of control
- T/C (endpoint: median survival time, dose: 3.02 mg/kg/injection, schedule: Q01DX Z (sc), vehicle: water): 100 % of control
- T/C (endpoint: median survival time, dose: 5.04 mg/kg/injection, schedule: Q01DX Z (sc), vehicle: water): 100 % of control
- T/C [10]: 100 % of control
- T/C [11]: 100 % of control
- T/C (endpoint: median survival time, dose: 23.3 mg/kg/injection, schedule: Q01DX Z (sc), vehicle: water): 100 % of control
- T/C (endpoint: median survival time, dose: 38.9 mg/kg/injection, schedule: Q01DX Z (sc), vehicle: water): 100 % of control

Structure (SMILES): C1OC1CN1CCC(C2CCN(CC3CO3)CC2)CC1 (centres undefined)
- T/C (endpoint: median survival time, dose: 5.0 mg/kg/injection, schedule: Q01DX Z (sc), vehicle: methylcellulose (MC)): 109 % of control
- T/C [7]: 109 % of control
- T/C (endpoint: median survival time, dose: 23.0 mg/kg/injection, schedule: Q01DX Z (sc), vehicle: methylcellulose (MC)): 104 % of control
- T/C (endpoint: median survival time, dose: 65.0 mg/kg/injection, schedule: Q03DX Z (sc), vehicle: methylcellulose (MC)): 109 % of control
- T/C [1]: 118 % of control
- T/C (endpoint: median survival time, dose: 180.0 mg/kg/injection, schedule: Q03DX Z (sc), vehicle: methylcellulose (MC)): 118 % of control

Structure (SMILES): CCC(=O)OCC1OC(n2cnc3c(=S)nc(N)[nH]c32)C(OC(=O)CC)C1OC(=O)CC (centres undefined)
- T/C (endpoint: median survival time, dose: 5.0 mg/kg/injection, schedule: Q01DX Z (sc), vehicle: carboxymethylcellulose (CMC)): 100 % of control
- T/C (endpoint: median survival time, dose: 14.0 mg/kg/injection, schedule: Q01DX Z (sc), vehicle: carboxymethylcellulose (CMC)): 109 % of control
- T/C (endpoint: median survival time, dose: 23.0 mg/kg/injection, schedule: Q01DX Z (sc), vehicle: carboxymethylcellulose (CMC)): 100 % of control

Structure (SMILES): Cc1cccc2c(Nc3ccc(NS(C)(=O)=O)cc3)c3ccc([N+](=O)[O-])cc3nc12
- T/C (endpoint: mean survival time, dose: 10.0 mg/kg/injection, schedule: Q01DX009 (ip), vehicle: saline): 158 % of control
